Results: patent US20100267561A1, “HERBICIDAL PYRIDAZINONE DERIVATIVES” (priority 2007, published 2010)

Legend:
Assay in all cases: Test E pre-/postemergence plant response
Type in all cases: in vivo
[1] = test system: common chickweed (Stellaria media); conditions: Preemergence, scale 0 to 100
In short: (§1)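 Visual rating 0–100 vs untreated controls (0 = no effect, 100 = complete control) after 14–21 d greenhouse. Pre- and postemergence treatments; compound in non-phytotoxic solvent mix + surfactant. Post plants 2–18 cm, 1- to 4-leaf stage.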

[2] = test system: Russian thistle (Salsola kali); conditions: Preemergence, scale 0 to 100
In short: as §1

[3] = test system: surinam grass (Brachiaria decumbens); conditions: scale 0 to 100
In short: as §1

[4] = test system: Virginia (V.) dayflower (Commelina virginica); conditions: scale 0 to 100
In short: as §1

[5] = test system: common sowthistle (Sonchus oleraceous); conditions: scale 0 to 100
In short: as §1

[6] = test system: green foxtail (Setaria viridis); conditions: scale 0 to 100
In short: as §1

[7] = test system: quackgrass (Elytrigia repens); conditions: scale 0 to 100
In short: as §1

[8] = test system: common mallow (Malva sylvestris); conditions: scale 0 to 100
In short: as §1

[9] = test system: itchgrass (Rottboellia cochinchinensis); conditions: scale 0 to 100
In short: as §1

kochia (Kochia scoparia) = conditions: Preemergence, scale 0 to 100
In short: as §1

[10] = test system: prickly sida (Sida spinosa); conditions: scale 0 to 100
In short: as §1

SMILES: CCCc1cc(-c2ccc(Cl)cc2)nn1-c1c(O)cnn(C)c1=O [Compound 43]
- Plant response rating, Chickweed ([1]; 16 g ai/ha): 0
- Plant response rating, Chickweed ([1]; 31 g ai/ha): 0
- Plant response rating, Chickweed ([1]; 62 g ai/ha): 0
- Plant response rating, Thistle, Russian ([2]; 16 g ai/ha): 0
- Plant response rating, Thistle, Russian ([2]; 31 g ai/ha): 0
- Plant response rating, Thistle, Russian ([2]; 62 g ai/ha): 0
- Plant response rating, Surinam Grass ([3]; 16 g ai/ha, Preemergence): 50
- Plant response rating, Surinam Grass ([3]; 31 g ai/ha, Preemergence): 70
- Plant response rating, Surinam Grass ([3]; 62 g ai/ha, Preemergence): 100
- Plant response rating, Surinam Grass ([3]; Postemergence, 8 g ai/ha): 95
- Plant response rating, Surinam Grass ([3]; Postemergence, 16 g ai/ha): 98
- Plant response rating, Surinam Grass ([3]; Postemergence, 31 g ai/ha): 98
- Plant response rating, Surinam Grass ([3]; Postemergence, 62 g ai/ha): 98
- Plant response rating, Dayflower, V. ([4]; 16 g ai/ha, Preemergence): 0
- Plant response rating, Dayflower, V. ([4]; 31 g ai/ha, Preemergence): 0
- Plant response rating, Dayflower, V. ([4]; 62 g ai/ha, Preemergence): 0
- Plant response rating, Dayflower, V. ([4]; Postemergence, 8 g ai/ha): 0
- Plant response rating, Dayflower, V. ([4]; Postemergence, 16 g ai/ha): 0
- Plant response rating, Dayflower, V. ([4]; Postemergence, 31 g ai/ha): 0
- Plant response rating, Dayflower, V. ([4]; Postemergence, 62 g ai/ha): 0
- Plant response rating, Sowthistle ([5]; 16 g ai/ha, Preemergence): 0
- Plant response rating, Sowthistle ([5]; 31 g ai/ha, Preemergence): 0
- Plant response rating, Sowthistle ([5]; 62 g ai/ha, Preemergence): 0
- Plant response rating, Sowthistle ([5]; Postemergence, 8 g ai/ha): 0
- Plant response rating, Sowthistle ([5]; Postemergence, 16 g ai/ha): 0
- Plant response rating, Sowthistle ([5]; Postemergence, 31 g ai/ha): 0
- Plant response rating, Sowthistle ([5]; Postemergence, 62 g ai/ha): 0
- Plant response rating, Foxtail, Green ([6]; 16 g ai/ha, Preemergence): 25
- Plant response rating, Foxtail, Green ([6]; 31 g ai/ha, Preemergence): 85
- Plant response rating, Foxtail, Green ([6]; 62 g ai/ha, Preemergence): 100
- Plant response rating, Foxtail, Green ([6]; Postemergence, 8 g ai/ha): 75
- Plant response rating, Foxtail, Green ([6]; Postemergence, 16 g ai/ha): 80
- Plant response rating, Foxtail, Green ([6]; Postemergence, 31 g ai/ha): 80
- Plant response rating, Foxtail, Green ([6]; Postemergence, 62 g ai/ha): 98
- Plant response rating, Quackgrass ([7]; 16 g ai/ha, Preemergence): 70
- Plant response rating, Quackgrass ([7]; 31 g ai/ha, Preemergence): 80
- Plant response rating, Quackgrass ([7]; 62 g ai/ha, Preemergence): 95
- Plant response rating, Quackgrass ([7]; Postemergence, 8 g ai/ha): 0
- Plant response rating, Quackgrass ([7]; Postemergence, 16 g ai/ha): 0
- Plant response rating, Quackgrass ([7]; Postemergence, 31 g ai/ha): 20
- Plant response rating, Quackgrass ([7]; Postemergence, 62 g ai/ha): 75
- Plant response rating, Mallow ([8]; 16 g ai/ha, Preemergence): 0
- Plant response rating, Mallow ([8]; 31 g ai/ha, Preemergence): 0
- Plant response rating, Mallow ([8]; 62 g ai/ha, Preemergence): 0
- Plant response rating, Mallow ([8]; Postemergence, 8 g ai/ha): 0
- Plant response rating, Mallow ([8]; Postemergence, 16 g ai/ha): 0
- Plant response rating, Mallow ([8]; Postemergence, 31 g ai/ha): 0
- Plant response rating, Mallow ([8]; Postemergence, 62 g ai/ha): 0
- Plant response rating, Itchgrass ([9]; 16 g ai/ha, Preemergence): 35
- Plant response rating, Itchgrass ([9]; 31 g ai/ha, Preemergence): 50
- Plant response rating, Itchgrass ([9]; 62 g ai/ha, Preemergence): 85
- Plant response rating, Itchgrass ([9]; Postemergence, 8 g ai/ha): 20
- Plant response rating, Itchgrass ([9]; Postemergence, 31 g ai/ha): 20
- Plant response rating, Itchgrass ([9]; Postemergence, 62 g ai/ha): 75
- Plant response rating, Kochia (kochia (Kochia scoparia); 16 g ai/ha): 0
- Plant response rating, Kochia (kochia (Kochia scoparia); 31 g ai/ha): 0
- Plant response rating, Kochia (kochia (Kochia scoparia); 62 g ai/ha): 0
- Plant response rating, Prickly Sida ([10]; 16 g ai/ha, Preemergence): 0
- Plant response rating, Prickly Sida ([10]; 31 g ai/ha, Preemergence): 0
- Plant response rating, Prickly Sida ([10]; 62 g ai/ha, Preemergence): 0
- Plant response rating, Prickly Sida ([10]; Postemergence, 8 g ai/ha): 0
- Plant response rating, Prickly Sida ([10]; Postemergence, 16 g ai/ha): 0
- Plant response rating, Prickly Sida ([10]; Postemergence, 31 g ai/ha): 0
- Plant response rating, Prickly Sida ([10]; Postemergence, 62 g ai/ha): 0

SMILES: CCOC(=O)Oc1cnn(C)c(=O)c1-n1nc(-c2ccc(Cl)cc2)cc1C [Compound 53]
- Plant response rating, Chickweed ([1]; 62 g ai/ha): 0
- Plant response rating, Thistle, Russian ([2]; 16 g ai/ha): 0
- Plant response rating, Thistle, Russian ([2]; 31 g ai/ha): 0
- Plant response rating, Thistle, Russian ([2]; 62 g ai/ha): 0
- Plant response rating, Surinam Grass ([3]; 16 g ai/ha, Preemergence): 100
- Plant response rating, Surinam Grass ([3]; 31 g ai/ha, Preemergence): 100
- Plant response rating, Surinam Grass ([3]; 62 g ai/ha, Preemergence): 100
- Plant response rating, Surinam Grass ([3]; Postemergence, 8 g ai/ha): 90
- Plant response rating, Surinam Grass ([3]; Postemergence, 16 g ai/ha): 90
- Plant response rating, Surinam Grass ([3]; Postemergence, 31 g ai/ha): 100
- Plant response rating, Surinam Grass ([3]; Postemergence, 62 g ai/ha): 100
- Plant response rating, Dayflower, V. ([4]; 16 g ai/ha, Preemergence): 0
- Plant response rating, Dayflower, V. ([4]; 31 g ai/ha, Preemergence): 0
- Plant response rating, Dayflower, V. ([4]; 62 g ai/ha, Preemergence): 0
- Plant response rating, Dayflower, V. ([4]; Postemergence, 8 g ai/ha): 0
- Plant response rating, Dayflower, V. ([4]; Postemergence, 16 g ai/ha): 0
- Plant response rating, Dayflower, V. ([4]; Postemergence, 31 g ai/ha): 0
- Plant response rating, Dayflower, V. ([4]; Postemergence, 62 g ai/ha): 0
- Plant response rating, Sowthistle ([5]; 16 g ai/ha, Preemergence): 0
- Plant response rating, Sowthistle ([5]; 31 g ai/ha, Preemergence): 0
- Plant response rating, Sowthistle ([5]; 62 g ai/ha, Preemergence): 0
- Plant response rating, Sowthistle ([5]; Postemergence, 8 g ai/ha): 0
- Plant response rating, Sowthistle ([5]; Postemergence, 16 g ai/ha): 0
- Plant response rating, Sowthistle ([5]; Postemergence, 31 g ai/ha): 0
- Plant response rating, Sowthistle ([5]; Postemergence, 62 g ai/ha): 0
- Plant response rating, Foxtail, Green ([6]; 16 g ai/ha, Preemergence): 20
- Plant response rating, Foxtail, Green ([6]; 31 g ai/ha, Preemergence): 65
- Plant response rating, Foxtail, Green ([6]; 62 g ai/ha, Preemergence): 100
- Plant response rating, Foxtail, Green ([6]; Postemergence, 8 g ai/ha): 70
- Plant response rating, Foxtail, Green ([6]; Postemergence, 16 g ai/ha): 80
- Plant response rating, Foxtail, Green ([6]; Postemergence, 31 g ai/ha): 90
- Plant response rating, Foxtail, Green ([6]; Postemergence, 62 g ai/ha): 100
- Plant response rating, Quackgrass ([7]; 16 g ai/ha, Preemergence): 35
- Plant response rating, Quackgrass ([7]; 31 g ai/ha, Preemergence): 65
- Plant response rating, Quackgrass ([7]; 62 g ai/ha, Preemergence): 70
- Plant response rating, Quackgrass ([7]; Postemergence, 8 g ai/ha): 0
- Plant response rating, Quackgrass ([7]; Postemergence, 16 g ai/ha): 0
- Plant response rating, Quackgrass ([7]; Postemergence, 31 g ai/ha): 0
- Plant response rating, Quackgrass ([7]; Postemergence, 62 g ai/ha): 30
- Plant response rating, Mallow ([8]; 62 g ai/ha, Preemergence): 0
- Plant response rating, Mallow ([8]; Postemergence, 8 g ai/ha): 0
- Plant response rating, Mallow ([8]; Postemergence, 16 g ai/ha): 0
- Plant response rating, Mallow ([8]; Postemergence, 31 g ai/ha): 0
- Plant response rating, Mallow ([8]; Postemergence, 62 g ai/ha): 0
- Plant response rating, Itchgrass ([9]; 16 g ai/ha, Preemergence): 75
- Plant response rating, Itchgrass ([9]; 31 g ai/ha, Preemergence): 85
- Plant response rating, Itchgrass ([9]; 62 g ai/ha, Preemergence): 90
- Plant response rating, Itchgrass ([9]; Postemergence, 8 g ai/ha): 70
- Plant response rating, Itchgrass ([9]; Postemergence, 16 g ai/ha): 90
- Plant response rating, Itchgrass ([9]; Postemergence, 31 g ai/ha): 95
- Plant response rating, Itchgrass ([9]; Postemergence, 62 g ai/ha): 98
- Plant response rating, Kochia (kochia (Kochia scoparia); 16 g ai/ha): 0
- Plant response rating, Kochia (kochia (Kochia scoparia); 31 g ai/ha): 0
- Plant response rating, Prickly Sida ([10]; 16 g ai/ha, Preemergence): 0
- Plant response rating, Prickly Sida ([10]; 31 g ai/ha, Preemergence): 0
- Plant response rating, Prickly Sida ([10]; 62 g ai/ha, Preemergence): 0
- Plant response rating, Prickly Sida ([10]; Postemergence, 8 g ai/ha): 0
- Plant response rating, Prickly Sida ([10]; Postemergence, 16 g ai/ha): 0
- Plant response rating, Prickly Sida ([10]; Postemergence, 31 g ai/ha): 0
- Plant response rating, Prickly Sida ([10]; Postemergence, 62 g ai/ha): 0
